Measurements from ChEMBL document CHEMBL1201862, “PubChem BioAssay data set” (2004).
Active and inactive are the calls of the source.

How the values were obtained:
Type in all cases: functional
[1] = Luminescence Cell-Based Dose Retest to Confirm Inhibitors of Cancer Stem Cells. [Related pubchem assays (depositor defined):AID2717, AID2721]; settings: Homo sapiens
[2] = target: Intestinal-type alkaline phosphatase (Mus musculus, UniProt P24822); test: PubChem AID 488875
[3] = target: T1, Intestinal-type alkaline phosphatase (Homo sapiens, UniProt P09923); test: human intestinal alkaline phosphatase activators, dose response, biochemical, luminescence, uHTS hits (AID 463120)
[4] = target: T1, Intestinal-type alkaline phosphatase; test: activation of human intestinal alkaline phosphatase – biochemical, luminescent, uHTS hits, set 2, dose response (AID 488817);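 also: potency of activators that raise enzyme activity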
[5] = target: T2, Alkaline phosphatase, tissue-nonspecific isozyme (Homo sapiens, UniProt P05186); test: activation of tissue-nonspecific alkaline phosphatase – biochemical, TNAP isozyme, human IAP uHTS hits, selectivity assay for human IAP activator project, dose response (AID 488886);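 also: potency of compounds raising TNAP activity as a selectivity check on IAP activators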
T2 sequence (P05186 whole entry): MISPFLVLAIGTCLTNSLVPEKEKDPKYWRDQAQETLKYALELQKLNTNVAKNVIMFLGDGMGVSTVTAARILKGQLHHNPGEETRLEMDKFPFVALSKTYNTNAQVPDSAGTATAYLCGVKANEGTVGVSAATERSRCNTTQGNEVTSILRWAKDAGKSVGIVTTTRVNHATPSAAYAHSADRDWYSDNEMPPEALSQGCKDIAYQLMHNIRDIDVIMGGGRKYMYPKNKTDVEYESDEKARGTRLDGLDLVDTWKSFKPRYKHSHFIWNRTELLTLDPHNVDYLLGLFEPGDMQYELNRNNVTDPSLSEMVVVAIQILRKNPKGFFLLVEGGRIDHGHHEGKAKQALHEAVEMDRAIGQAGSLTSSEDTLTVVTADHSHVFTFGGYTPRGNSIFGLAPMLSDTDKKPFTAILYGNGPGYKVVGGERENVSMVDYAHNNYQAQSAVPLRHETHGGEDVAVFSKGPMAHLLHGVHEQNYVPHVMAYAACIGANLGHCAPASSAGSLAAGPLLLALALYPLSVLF

[6] = target: T3, Replicative DNA helicase DnaB (Mycobacterium tuberculosis, UniProt P9WMR3); test: DnaB intein splicing inhibitors, dose response, biochemical, cell-free fluorescence (AID 449749)
T3 sequence (P9WMR3 whole entry): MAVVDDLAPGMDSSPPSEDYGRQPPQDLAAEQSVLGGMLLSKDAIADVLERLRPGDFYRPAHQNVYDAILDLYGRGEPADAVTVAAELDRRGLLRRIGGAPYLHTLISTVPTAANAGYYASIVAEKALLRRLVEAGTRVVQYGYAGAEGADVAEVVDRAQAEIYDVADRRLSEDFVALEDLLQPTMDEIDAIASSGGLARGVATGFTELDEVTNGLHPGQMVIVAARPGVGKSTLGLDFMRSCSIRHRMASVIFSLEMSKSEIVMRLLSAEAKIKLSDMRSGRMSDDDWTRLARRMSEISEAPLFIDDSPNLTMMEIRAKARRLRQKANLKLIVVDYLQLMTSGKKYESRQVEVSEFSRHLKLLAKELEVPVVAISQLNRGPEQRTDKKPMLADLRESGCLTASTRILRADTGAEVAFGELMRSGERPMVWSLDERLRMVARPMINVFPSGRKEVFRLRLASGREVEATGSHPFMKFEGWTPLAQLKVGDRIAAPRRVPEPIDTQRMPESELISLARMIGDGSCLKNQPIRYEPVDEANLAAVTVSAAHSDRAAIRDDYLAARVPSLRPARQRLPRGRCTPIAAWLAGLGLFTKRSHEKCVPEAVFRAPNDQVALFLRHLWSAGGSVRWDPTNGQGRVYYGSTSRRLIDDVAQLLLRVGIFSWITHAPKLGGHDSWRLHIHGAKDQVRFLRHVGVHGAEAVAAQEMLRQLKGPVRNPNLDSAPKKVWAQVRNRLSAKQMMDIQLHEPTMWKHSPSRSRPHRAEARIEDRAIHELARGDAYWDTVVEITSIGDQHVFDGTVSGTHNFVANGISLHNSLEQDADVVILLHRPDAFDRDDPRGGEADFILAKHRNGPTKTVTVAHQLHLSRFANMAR

[7] = target: T4, High affinity choline transporter 1 (Homo sapiens, UniProt Q9GZV3); test: human choline transporter blockers, potency – cell-based, 5-point CRC, membrane potential dye, dose response (AID 504840)
T4 sequence (Q9GZV3 whole entry): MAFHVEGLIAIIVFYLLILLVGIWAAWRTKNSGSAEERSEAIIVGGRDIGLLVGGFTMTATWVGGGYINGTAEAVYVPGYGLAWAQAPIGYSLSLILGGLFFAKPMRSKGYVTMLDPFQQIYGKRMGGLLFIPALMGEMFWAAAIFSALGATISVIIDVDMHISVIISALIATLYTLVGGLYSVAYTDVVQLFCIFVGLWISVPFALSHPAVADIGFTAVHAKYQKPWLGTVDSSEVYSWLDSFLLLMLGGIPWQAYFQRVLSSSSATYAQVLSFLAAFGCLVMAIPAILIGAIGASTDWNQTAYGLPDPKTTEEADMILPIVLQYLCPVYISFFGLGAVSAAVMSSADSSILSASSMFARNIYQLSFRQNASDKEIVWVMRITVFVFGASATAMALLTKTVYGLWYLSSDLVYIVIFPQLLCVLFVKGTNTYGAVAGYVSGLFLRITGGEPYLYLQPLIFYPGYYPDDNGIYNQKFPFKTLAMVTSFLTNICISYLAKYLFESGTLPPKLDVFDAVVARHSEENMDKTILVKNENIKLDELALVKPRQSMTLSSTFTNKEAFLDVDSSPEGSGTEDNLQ

Protein RecA = target: T5, Protein RecA (Mycobacterium tuberculosis, UniProt P9WHJ3); test: Fluorescence Cell-Free Homogeneous Dose Retest to Identify Inhibitors of RecA-Intein Splicing Activity. [Related pubchem assays (depositor defined):AID2097, AID2223, AID489010, AID492950]
T5 sequence (P9WHJ3 whole entry): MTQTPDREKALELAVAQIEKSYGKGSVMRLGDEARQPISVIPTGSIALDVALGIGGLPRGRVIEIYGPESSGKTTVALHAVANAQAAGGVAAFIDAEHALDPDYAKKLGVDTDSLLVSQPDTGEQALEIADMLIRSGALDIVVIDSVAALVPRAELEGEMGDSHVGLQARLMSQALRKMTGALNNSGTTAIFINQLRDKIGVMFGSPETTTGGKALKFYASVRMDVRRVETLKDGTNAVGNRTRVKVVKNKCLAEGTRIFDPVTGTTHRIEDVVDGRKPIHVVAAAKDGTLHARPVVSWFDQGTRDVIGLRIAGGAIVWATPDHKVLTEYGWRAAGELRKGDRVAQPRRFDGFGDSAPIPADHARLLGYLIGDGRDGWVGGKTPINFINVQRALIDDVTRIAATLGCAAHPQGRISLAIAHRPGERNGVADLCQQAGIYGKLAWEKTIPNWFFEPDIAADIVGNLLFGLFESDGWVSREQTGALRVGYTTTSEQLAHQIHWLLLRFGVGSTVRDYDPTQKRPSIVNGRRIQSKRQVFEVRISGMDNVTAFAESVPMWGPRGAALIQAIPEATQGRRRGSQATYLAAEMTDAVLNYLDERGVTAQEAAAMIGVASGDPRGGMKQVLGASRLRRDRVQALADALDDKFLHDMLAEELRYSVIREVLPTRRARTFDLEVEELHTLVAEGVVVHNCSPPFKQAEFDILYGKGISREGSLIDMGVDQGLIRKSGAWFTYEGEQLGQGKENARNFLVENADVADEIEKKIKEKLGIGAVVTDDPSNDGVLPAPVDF

T1 sequence (P09923 whole entry): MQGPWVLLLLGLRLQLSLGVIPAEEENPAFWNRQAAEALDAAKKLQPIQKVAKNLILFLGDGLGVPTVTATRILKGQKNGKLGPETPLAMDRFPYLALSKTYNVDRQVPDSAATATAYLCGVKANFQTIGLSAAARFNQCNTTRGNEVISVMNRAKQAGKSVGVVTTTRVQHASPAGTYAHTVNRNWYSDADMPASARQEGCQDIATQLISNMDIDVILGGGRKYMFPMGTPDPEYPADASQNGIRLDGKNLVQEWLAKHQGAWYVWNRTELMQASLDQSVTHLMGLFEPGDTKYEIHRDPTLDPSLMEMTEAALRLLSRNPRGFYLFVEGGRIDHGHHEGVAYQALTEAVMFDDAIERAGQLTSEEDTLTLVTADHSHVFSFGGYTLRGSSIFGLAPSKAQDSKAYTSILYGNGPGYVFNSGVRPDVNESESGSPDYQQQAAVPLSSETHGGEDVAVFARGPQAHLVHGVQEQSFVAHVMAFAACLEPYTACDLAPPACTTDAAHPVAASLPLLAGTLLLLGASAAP
Sequence of Intestinal-type alkaline phosphatase (Mus musculus, UniProt P24822) (P24822 whole entry): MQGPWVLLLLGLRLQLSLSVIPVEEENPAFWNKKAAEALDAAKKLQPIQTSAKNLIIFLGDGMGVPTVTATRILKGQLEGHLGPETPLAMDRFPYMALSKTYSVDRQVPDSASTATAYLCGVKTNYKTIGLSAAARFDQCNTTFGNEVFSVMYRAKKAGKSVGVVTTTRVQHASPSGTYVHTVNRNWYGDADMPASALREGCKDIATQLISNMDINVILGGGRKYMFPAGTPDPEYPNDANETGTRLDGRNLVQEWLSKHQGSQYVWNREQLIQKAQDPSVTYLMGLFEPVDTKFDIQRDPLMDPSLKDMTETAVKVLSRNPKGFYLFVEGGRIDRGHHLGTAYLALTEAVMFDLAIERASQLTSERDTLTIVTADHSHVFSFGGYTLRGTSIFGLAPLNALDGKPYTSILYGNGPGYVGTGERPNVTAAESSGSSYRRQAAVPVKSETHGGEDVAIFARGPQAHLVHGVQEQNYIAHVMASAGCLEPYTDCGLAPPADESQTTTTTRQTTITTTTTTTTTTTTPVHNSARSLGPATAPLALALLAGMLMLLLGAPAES

Cc1cc(C)cc(CC(Cc2nc3ccccc3[nH]2)c2nc3ccccc3[nH]2)c1 (stereo not drawn)
active: AC50 [1] 6.69 µM | EC50 [2] 26.6 µM | EC50 [3] 65.7 µM | EC50 [4] 55.6 µM | EC50 [5] 69.7 µM | AC50 [6] 8.31 µM | IC50 [7] 15.8 µM | EC50 (Protein RecA) 83 µM
